Measured values taken from patent CN116283752A (priority 2023, dated 2023).
In brackets after ≈: the same amount, converted by molar mass. Like-named read-outs stand apart in the source and are kept apart here.

Columns and labels:
Assay type in all cases: cell-based
[1] = system: autoluminescent Mycobacterium tuberculosis H37Ra [自主发光Mtb H37Ra]; experiment: microbe, parasite or virus in culture
[2] = system: Mycobacterium tuberculosis H37Ra [结核分枝杆菌H37Ra]
[3] = system: wild-type Mycobacterium tuberculosis H37Rv [野生型结核分枝杆菌(H37Rv)]; experiment: microbe, parasite or virus in culture; settings: Alamar Blue, 37℃, 10 days + 1 day; for MIC: compound alone; for MIC + TB47: with TB47 0.003 μg/mL
[4] = Mycobacterium tuberculosis, H37RA, read-out: MIC
[5] = Mycobacterium tuberculosis, read-out: MIC

| Structure (SMILES) | MIC [1, 4] [µg/mL] | MIC [1] [µg/mL] | MIC in synergy with TB47 [2] [µg/mL] | MIC [3, 5] [µg/mL] | MIC + TB47 [3] [µg/mL] | MIC [3] [µg/mL] |
| --- | --- | --- | --- | --- | --- | --- |
| O=C(Nc1cncc(C(F)(F)F)c1)c1cc(Cl)ccc1O [compound 5, 5-氯-2-羟基-N-(5-三氟甲基-3-吡啶基)-苯甲酰胺] | 5 (≈ 15.8 µM) |  |  |  |  |  |
| O=C(Nc1cc(Cl)nc(Cl)c1)c1cc(Cl)ccc1O [compound 6, 5-氯-N-(2,6-二氯-4-吡啶基)-2-羟基苯甲酰胺] | 1.25 (≈ 3.94 µM) | 1.25 (≈ 3.94 µM) | 0.625 |  |  |  |
| O=C(Nc1cnc(Cl)cn1)c1cc(Cl)ccc1O [compound 9, 5-氯-N-(5-氯-2-吡嗪基)-2-羟基苯甲酰胺] | 4 (≈ 14.1 µM) |  |  |  |  |  |
| O=C(Nc1ncc(Cl)cn1)c1cc(Cl)ccc1O [compound 12, 5-氯-N-(5-氯-2-嘧啶基)-2-羟基苯甲酰胺] | 5 (≈ 17.6 µM) |  |  |  |  |  |
| O=C(Nc1cnc(Cl)nc1)c1cc(Cl)ccc1O [compound 13, 5-氯-N-(2-氯-5-嘧啶基)-2-羟基苯甲酰胺] | 5 (≈ 17.6 µM) |  |  |  |  |  |
| O=C(Nc1cc(Cl)ncn1)c1cc(Cl)ccc1O [compound 14, 5-氯-N-(6-氯-4-嘧啶基)-2-羟基苯甲酰胺] | 2.5 (≈ 8.8 µM) |  |  |  |  |  |
| O=C(Nc1nccc(C(F)(F)F)n1)c1cc(Cl)ccc1O [compound 15, 5-氯-2-羟基-N-(4-三氟甲基-2-嘧啶基)-苯甲酰胺] | 5 (≈ 15.7 µM) |  |  |  |  |  |
| O=C(Nc1cc(C(F)(F)F)ncn1)c1cc(Cl)ccc1O [compound 16, 5-氯-2-羟基-N-(6-三氟甲基-4-嘧啶基)-苯甲酰胺] | 2.5 (≈ 7.87 µM) | 2.5 (≈ 7.87 µM) | 0.625 |  |  |  |
| O=C(Nc1nc2ccc(OC(F)(F)F)cc2s1)c1cc(Cl)ccc1O [compound 17, 5-氯-2-羟基-N-(6-三氟甲氧基-2-苯并噻唑基)-苯甲酰胺] | 10 (≈ 25.7 µM) |  |  |  |  |  |
| O=C(Nc1ccc(Cl)nn1)c1cc(Cl)ccc1O [compound 19, 5-氯-N-(6-氯-3-哒嗪基)-2-羟基苯甲酰胺] | 10 (≈ 35.2 µM) |  |  |  |  |  |
| O=C(Nc1nnc(C(F)(F)F)s1)c1cc(Cl)ccc1O [compound 20, 5-氯-2-羟基-N-[5-三氟甲基-2-(1,3,4-噻二唑基)]-苯甲酰胺] | 10 (≈ 30.9 µM) |  |  |  |  |  |
| O=C(Nc1ncc(Cl)s1)c1cc(Cl)ccc1O [compound 21, 5-氯-N-(5-氯-2-噻唑基)-2-羟基苯甲酰胺] | 5 (≈ 17.3 µM) |  |  |  |  |  |
| O=C(Nc1ccc(Cl)cn1)c1cc(Cl)ccc1O [化合物1, 5-氯-N-(5-氯-2-吡啶基)-2-羟基苯甲酰胺] | 5 (≈ 17.7 µM) |  |  |  |  |  |
| O=C(Nc1ccc(C(F)(F)F)cn1)c1cc(Cl)ccc1O [化合物2, 5-氯-2-羟基-N-(5-三氟甲基-2-吡啶基)-苯甲酰胺] | 1.25 (≈ 3.95 µM) | 1.25 (≈ 3.95 µM) |  |  |  |  |
| O=C(Nc1ccc(C(F)(F)F)nc1)c1cc(Cl)ccc1O [化合物3, 5-氯-2-羟基-N-(6-三氟甲基-3-吡啶基)-苯甲酰胺] | 4 (≈ 12.6 µM) | 4 (≈ 12.6 µM) | 0.25 | 4 | 0.5 |  |
| O=C(Nc1ccnc(C(F)(F)F)c1)c1cc(Cl)ccc1O [化合物4, 5-氯-2-羟基-N-(2-三氟甲基-4-吡啶基)-苯甲酰胺] | 1.25 (≈ 3.95 µM) | 1.25 (≈ 3.95 µM) | 0.625 | 2 | < 0.125 | 2 |
| O=C(Nc1cnc(Cl)c(Cl)c1)c1cc(Cl)ccc1O [化合物7, 5-氯-N-(5,6-二氯-3-吡啶基)-2-羟基苯甲酰胺] | 2.5 (≈ 7.87 µM) |  |  | 4 | 0.25 |  |
| O=C(Nc1ccc(Cl)nc1Cl)c1cc(Cl)ccc1O [化合物8, 5-氯-N-(2,6-二氯-3-吡啶基)-2-羟基苯甲酰胺] | 2.5 (≈ 7.87 µM) | 2.5 (≈ 7.87 µM) | 0.625 | 4 | 0.25 |  |
| O=C(Nc1cncc(Cl)n1)c1cc(Cl)ccc1O [化合物10, 5-氯-N-(6-氯-2-吡嗪基)-2-羟基苯甲酰胺] | 2.5 (≈ 8.8 µM) |  |  | 4 | 0.25 |  |
| O=C(Nc1cnc(C(F)(F)F)cn1)c1cc(Cl)ccc1O [化合物11, 5-氯-2-羟基-N-(5-三氟甲基-2-吡嗪基)-苯甲酰胺] | 1.25 (≈ 3.94 µM) | 1.25 (≈ 3.94 µM) | 0.625 | 2 | < 0.125 | 2 |
| O=C(Nc1nc2ccc(C(F)(F)F)cc2s1)c1cc(Cl)ccc1O [化合物18, 5-氯-2-羟基-N-(6-三氟甲基-2-苯并噻唑基)-苯甲酰胺] | 5 (≈ 13.4 µM) | 5 (≈ 13.4 µM) | 0.625 |  |  |  |
